# Measured values taken from patent US20230295118A1 (EnhancedBio Inc., priority 2022, published 2023).
# Like-named read-outs stand apart in the source and are kept apart here.
# Key:
# Format in all cases: cell-based
# [1] = test system: mantle cell lymphoma cell (Mino or JeKo-1); experiment: Antiproliferative effect, MTS cell viability assay
# How it was run: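 Mino cells treated with compounds at 0, 0.0001, 0.001, 0.01, 0.1, 1 μM for 72 h; palbociclib and abemaciclib as positive controls. Viability by MTS, formazan absorbance read at 490 nm.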
# CDK4 = target: T1, CDK4 (Homo sapiens, UniProt P11802); experiment: CDK4 degradation (DC50, Dmax)
# T1 construct: endogenous in cells
# T1 sequence (P11802 whole entry): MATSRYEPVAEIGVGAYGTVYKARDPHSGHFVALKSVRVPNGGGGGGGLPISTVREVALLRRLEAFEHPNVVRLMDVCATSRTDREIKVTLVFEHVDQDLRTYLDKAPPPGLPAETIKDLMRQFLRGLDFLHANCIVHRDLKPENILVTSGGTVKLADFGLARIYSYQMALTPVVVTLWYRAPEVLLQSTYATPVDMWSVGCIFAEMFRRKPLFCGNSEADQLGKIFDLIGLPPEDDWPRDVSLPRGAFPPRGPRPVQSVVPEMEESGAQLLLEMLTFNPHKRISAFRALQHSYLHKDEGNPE
# CDK6 = target: T2, CDK6 (Homo sapiens, UniProt Q00534); experiment: CDK6 degradation (DC50, Dmax)
# T2 construct: endogenous in cells
# T2 sequence (Q00534 whole entry): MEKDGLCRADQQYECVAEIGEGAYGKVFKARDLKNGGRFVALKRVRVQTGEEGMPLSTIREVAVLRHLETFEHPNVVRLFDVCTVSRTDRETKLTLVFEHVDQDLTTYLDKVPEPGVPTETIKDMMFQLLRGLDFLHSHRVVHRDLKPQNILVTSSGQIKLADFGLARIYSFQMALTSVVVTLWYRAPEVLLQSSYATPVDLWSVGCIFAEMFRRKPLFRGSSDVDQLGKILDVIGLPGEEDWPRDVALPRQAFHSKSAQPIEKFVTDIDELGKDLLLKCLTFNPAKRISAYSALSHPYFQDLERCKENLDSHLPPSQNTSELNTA
# [2] = 72 h, mantle cell lymphoma cell (Mino or JeKo-1), MTS assay, read-out: IC50 (anti-proliferation)
# [3] = Mino cells; 0-1 μM; 72 h; result in words
Structure (SMILES),"IC50 [1, 2] [nM]",DC50 (CDK4) [nM],Dmax (CDK4) [%],DC50 (CDK6) [nM],Dmax (CDK6) [%],"inhibition of cell proliferation of Mino cells [1, 3]","IC50 ([1]; mantle cell lymphoma cell (Mino or JeKo-1); MTS assay, 72 h; read-out: IC50 (anti-proliferation)) [nM]",Dmax CDK4 (CDK4),Dmax CDK6 (CDK6)
"CC(=O)c1c(C)c2cnc(Nc3ccc(N4CCN(C5CCN(C(=O)N6CCC(C7CCN(c8ccc9c(c8)C(=O)N(C8CCC(=O)NC8=O)C9=O)CC7)CC6)CC5)CC4)cn3)nc2n(C2CCCC2)c1=O (centres unmarked) [Compound 85, 5-(1′-(4-(4-(6-((6-acetyl-8-cyclopentyl-5-methyl-7-oxo-7,8-dihydropyrido[2,3-d]pyrimidin-2-yl)amino)pyridin-3-yl)piperazin-1-yl)piperidine-1-carbonyl)-[4,4′-bipiperidin]-1-yl)-2-(2,6-dioxopiperidin-3-yl) isoindoline-1,3-dione]",> 200,> 200,> 60,> 200,> 60,,,,
"CC(=O)c1c(C)c2cnc(Nc3ccc(N4CCN(C5CCN(C(=O)N6CCC(CN7CCN(c8ccc9c(c8)C(=O)N(C8CCC(=O)NC8=O)C9=O)CC7)CC6)CC5)CC4)cn3)nc2n(C2CCCC2)c1=O (centres unmarked) [Compound 86, 5-(4-((1-(4-(4-(6-((6-acetyl-8-cyclopentyl-5-methyl-7-oxo-7,8-dihydropyrido[2,3-d]pyrimidin-2-yl)amino)pyridin-3-yl)piperazin-1-yl)piperidine-1-carbonyl)piperidin-4-yl)methyl)piperazin-1-yl)-2-(2,6-dioxopiperidin-3-yl) isoindoline-1,3-dione]",50 to 200,50 to 200,> 60,50 to 200,> 60,,,,
"CC(=O)c1c(C)c2cnc(Nc3ccc(N4CCN(C5CCN(C(=O)N6CCC(N7CCN(c8ccc9c(c8)C(=O)N(C8CCC(=O)NC8=O)C9=O)CC7)CC6)CC5)CC4)cn3)nc2n(C2CCCC2)c1=O (centres unmarked) [Compound 88, 5-(4-(1-(4-(4-(6-((6-acetyl-8-cyclopentyl-5-methyl-7-oxo-7,8-dihydropyrido[2,3-d]pyrimidin-2-yl)amino)pyridin-3-yl)piperazin-1-yl)piperidine-1-carbonyl)piperidin-4-yl)piperazin-1-yl)-2-(2,6-dioxopiperidin-3-yl) isoindoline-1,3-dione]",> 200,> 200,> 60,> 200,> 50,,,,
"CC(=O)c1c(C)c2cnc(Nc3ccc(N4CCN(CC5CCN(C(=O)N6CCC(N7CCN(c8ccc9c(c8)C(=O)N(C8CCC(=O)NC8=O)C9=O)CC7)CC6)CC5)CC4)cn3)nc2n(C2CCCC2)c1=O (centres unmarked) [Compound 89, 5-(4-(1-(4-((4-(6-((6-acetyl-8-cyclopentyl-5-methyl-7-oxo-7,8-dihydropyrido[2,3-d]pyrimidin-2-yl)amino)pyridin-3-yl)piperazin-1-yl)methyl)piperidine-1-carbonyl)piperidin-4-yl)piperazin-1-yl)-2-(2,6-dioxopiperidin-3-yl)isoindoline-1,3-dione]",50 to 200,50 to 200,> 60,> 200,> 60,,,,
"Cc1nc2c(F)cc(-c3nc(Nc4ccc(CN5CCN(CCNc6cccc7c6C(=O)N(C6CCC(=O)NC6=O)C7=O)CC5)cn4)ncc3F)cc2n1C(C)C (centres unmarked) [Compound 92, 2-(2,6-dioxopiperidin-3-yl)-4-((2-(4-((6-((5-fluoro-4-(4-fluoro-1 isopropyl-2-methyl-1H-benzo[d]imidazol-6-yl)pyrimidin-2-yl)amino)pyridin-3-yl)methyl)piperazin-1-yl)ethyl)amino) isoindoline-1,3-dione]",< 50,50 to 200,> 80,< 50,> 80,dose-dependent inhibition of cell proliferation,,,
Cc1nc2c(F)cc(-c3nc(Nc4ccc(CN5CCN(CCNc6cccc7c6CN(C6CCC(=O)NC6=O)C7=O)CC5)cn4)ncc3F)cc2n1C(C)C (centres unmarked) [Compound 93],,50 to 200,,50 to 200,,,< 50,A (A: >80%),A (A: >80%)
"Cc1nc2c(F)cc(-c3nc(Nc4ccc(CN5CCN(CC6CN(c7ccc8c(c7)CN(C7CCC(=O)NC7=O)C8=O)C6)CC5)cn4)ncc3F)cc2n1C(C)C (centres unmarked) [Compound 95, 3-(5-(3-((4-((6-((5-fluoro-4-(4-fluoro-1-isopropyl-2-methyl-1H-benzo[d]imidazol-6-yl)pyrimidin-2-yl)amino)pyridin-3-yl)methyl)piperazin-1-yl)methyl)azetidin-1-yl)-1-oxoisoindolin-2-yl)piperidine-2,6-dione]",< 50,< 50,> 80,< 50,> 80,,,,
"Cc1nc2c(F)cc(-c3nc(Nc4ccc(CN5CCN(C6CN(c7ccc(C(=O)NC8CCC(=O)NC8=O)cc7)C6)CC5)cn4)ncc3F)cc2n1C(C)C (centres unmarked) [Compound 96, N-(2,6-dioxopiperidin-3-yl)-4-(3-(4-((6-((5-fluoro-4-(4-fluoro-1-isopropyl-2-methyl-1H-benzo[d]imidazol-6-yl)pyrimidin-2-yl)amino)pyridin-3-yl)methyl)piperazin-1-yl)azetidin-1-yi)benzamide]",< 50,< 50,> 80,< 50,> 80,,,,
"Cc1nc2c(F)cc(-c3nc(Nc4ccc(CN5CCN(C6CN(c7cccc8c7C(=O)N(C7CCC(=O)NC7=O)C8=O)C6)CC5)cn4)ncc3F)cc2n1C(C)C (centres unmarked) [Compound 98, 2-(2,6-dioxopiperidin-3-yl)-4-(3-(4-((6-((5-fluoro-4-(4-fluoro-1 isopropyl-2-methyl-1H-benzo[d]imidazol-6-yl)pyrimidin-2-yl)amino)pyridin-3-yl)methyl)piperazin-1-yl)azetidin-1-yl)isoindoline-1,3-dione]",50 to 200,50 to 200,> 80,50 to 200,> 80,,,,
"Cc1nc2c(F)cc(-c3nc(Nc4ccc(CN5CCN(C6CN(c7cccc8c7CN(C7CCC(=O)NC7=O)C8=O)C6)CC5)cn4)ncc3F)cc2n1C(C)C (centres unmarked) [Compound 99, 3-(4-(3-(4-((6-((5-fluoro-4-(4-fluoro-1-isopropyl-2-methyl-1H-benzo[d]imidazol-6-yl)pyrimidin-2-yl)amino)pyridin-3-yl)methyl)piperazin-1-yl)azetidin-1-yl)-1-oxoisoindolin-2-yl)piperidine-2,6-dione]",50 to 200,50 to 200,> 60,50 to 200,> 60,,,,

# The next lines start with results.
"IC50 [1, 2] [nM]",DC50 (CDK4) [nM],Dmax (CDK4) [%],DC50 (CDK6) [nM],Dmax (CDK6) [%],Structure (SMILES),"inhibition of cell proliferation of Mino cells [1, 3]","IC50 ([1]; mantle cell lymphoma cell (Mino or JeKo-1); MTS assay, 72 h; read-out: IC50 (anti-proliferation)) [nM]",Dmax CDK4 (CDK4),Dmax CDK6 (CDK6)
50 to 200,50 to 200,> 60,50 to 200,> 60,"CC(=O)c1c(C)c2cnc(Nc3ccc(N4CCN(C5CCN(C(=O)N6CCC(CCN7CCN(c8ccc9c(c8)C(=O)N(C8CCC(=O)NC8=O)C9=O)CC7)CC6)CC5)CC4)cn3)nc2n(C2CCCC2)c1=O (centres unmarked) [Compound 87, 5-(4-(2-(1-(4-(4-(6-((6-acetyl-8-cyclopentyl-5-methyl-7-oxo-7,8-dihydropyrido[2,3-d]pyrimidin-2-yl)amino)pyridin-3-yl)piperazin-1-yl)piperidine-1-carbonyl)piperidin-4-yl)ethyl)piperazin-1-yl)-2-(2,6-dioxopiperidin-3-yl) isoindoline-1,3-dione]",,,,
< 50,< 50,> 80,< 50,> 80,"Cc1nc2c(F)cc(-c3nc(Nc4ccc(CN5CCN(CCNc6ccc7c(c6)C(=O)N(C6CCC(=O)NC6=O)C7)CC5)cn4)ncc3F)cc2n1C(C)C (centres unmarked) [Compound 91, 3-(6-((2-(4-((6-((5-fluoro-4-(4-fluoro-1-isopropyl-2-methyl-1H-benzo[d]imidazol-6-yl)pyrimidin-2-yl)amino)pyridin-3-yl)methyl)piperazin-1-yl)ethyl)amino)-1-oxoisoindolin-2-yl)piperidine-2,6-dione]",,,,
< 50,< 50,> 80,< 50,> 80,"Cc1nc2c(F)cc(-c3nc(Nc4ccc(CN5CCN(C6CN(c7ccc8c(c7)CN(C7CCC(=O)NC7=O)C8=O)C6)CC5)cn4)ncc3F)cc2n1C(C)C (centres unmarked) [Compound 97, 3-(5-(3-(4-((6-((5-fluoro-4-(4-fluoro-1-isopropyl-2-methyl-1H-benzo[d]imidazol-6-yl)pyrimidin-2-yl)amino)pyridin-3-yl)methyl)piperazin-1-yl)azetidin-1-yl)-1-oxoisoindolin-2-yl)piperidine-2,6-dione]",,,,
< 50,50 to 200,> 80,50 to 200,> 80,"Cc1nc2c(F)cc(-c3nc(Nc4ccc(CN5CCN(CCCNc6cccc7c6C(=O)N(C6CCC(=O)NC6=O)C7=O)CC5)cn4)ncc3F)cc2n1C(C)C (centres unmarked) [Compound 100, 2-(2,6-dioxopiperidin-3-yl)-4-((3-(4-((6-((5-fluoro-4-(4-fluoro-1 isopropyl-2-methyl-1H-benzo[d]imidazol-6-yl)pyrimidin-2-yl)amino)pyridin-3-yl)methyl)piperazin-1-yl)propyl)amino) isoindoline-1,3-dione]",dose-dependent inhibition of cell proliferation,,,
50 to 200,50 to 200,> 60,50 to 200,> 80,"Cc1nc2c(F)cc(-c3nc(Nc4ccc(CN5CCN(c6cccc7c6C(=O)N(C6CCC(=O)NC6=O)C7=O)CC5)cn4)ncc3F)cc2n1C(C)C (centres unmarked) [Compound 101, 2-(2,6-dioxopiperidin-3-yl)-4-(4-((6-((5-fluoro-4-(4-fluoro-1-isopropyl-2-methyl-1H-benzo[d]imidazol-6-yl)pyrimidin-2-yl)amino)pyridin-3-yl)methyl)piperazin-1-yl)isoindoline-1,3-dione]",,,,
